Assay results reported in patent US12655110B2, “Method of producing a crystalline form of sodium 2-[(4S)-8-fluoro-2-[4-(3- methoxyphenyl)piperazin-1-yl]-3-[2-methoxy-5-(trifluoromethyl)phenyl]-4H-quinazoline-4-yl]acetate trihydrate” (A1C246 AG & CO. KG, priority 2020, dated 2026).

Columns and labels:
Type in all cases: physicochemical
Hygroscopicity (DVS) = conditions: for PXRD after DVS experiment (solid form): after hygroscopicity (DVS) experiment
[1] = Thermogravimetric analysis (TGA), decomposition; conditions: heated under nitrogen at 10° C./min from 30° C. to 300° C.
Method: Thermogravimetric analysis (TGA): Thermogravimetric analyses were recorded in a Mettler Toledo TGA/SDTA851 with a balance MT1 type. Approximately 3-4 mg of sample were weighed (using a MX5 Mettler Toledo microbalance) into 40 μL aluminium crucibles with a pinhole lid and heated under nitrogen (10 mL/min) at 10° C./min from 30° C. to 300° C. Programs used: Data collection and evaluation with software STARe.

[2] = Solid form stability in a drying process; conditions: drying process (>60° C.)

SMILES | Hygroscopicity (DVS): water adsorption (Hygroscopicity (DVS); 10-80% RH) | Hygroscopicity (DVS): water adsorption (Hygroscopicity (DVS); 10-90% RH) | PXRD after DVS experiment (solid form) (Hygroscopicity (DVS)) | TGA: decomposition occurs at [1] | Solid form change in a drying process [2]
CCO.COc1cccc(N2CCN(C3=Nc4c(F)cccc4[C@H](CC(=O)[O-])N3c3cc(C(F)(F)F)ccc3OC)CC2)c1.O.[Na+] [Ethanol/Water Solvate, sodium 2-[(4S)-8-fluoro-2-[4-(3-methoxyphenyl)piperazin-1-yl]-3-[2-methoxy-5-(trifluoromethyl)phenyl]-4H-quinazolin-4-yl]acetate ethanol monohydrate] | 5.3% water adsorption (10-80% RH) | 3.2% water adsorption (10-90% RH) | PXRD after experiment: trihydrate | Decomposition occurs at ca. 250 °C | The solid turns into the amorphous
COc1cccc(N2CCN(C3=Nc4c(F)cccc4[C@H](CC(=O)O)N3c3cc(C(F)(F)F)ccc3OC)CC2)c1 [Trihydrate, sodium 2-[(4S)-8-fluoro-2-[4-(3-methoxyphenyl)piperazin-1-yl]-3-[2-methoxy-5-(trifluoromethyl)phenyl]-4H-quinazolin-4-yl]acetate trihydrate] | 4.1% water adsorption (10-80% RH) | 8.6% water adsorption (10-90% RH) | No PXRD changes after experiment | Decomposition occurs at ca. 250 °C | The solid turns into the amorphous
